According to EP2012793B1, “USE OF A TRICYCLIC COMPOUND FOR PREPARING A MEDICAMENT FOR TREATING SKELETAL MUSCLE DEGENERATION OF GENETIC ORIGIN” (Association Française contre les Myopathies, priority 2006, dated 2007):
Where a name gives a salt, the structure may show the parent alone.

How the values were obtained:
[1] = system: souche de nématode dépourvue de dystrophine; assay: Test on dystrophin-deficient nematode strain (model of degenerative myopathy): paralysis phenotype and cytological count of degenerating muscle cells; format: in vivo, Caenorhabditis elegans; settings: for Diminution de la dégénérescence en %: untreated = 0; for Pourcentage d'animaux paralysés à J7: untreated = 100
Experimental: Les composés ont été testés sur une souche de nématode dépourvue de dystrophine (Gieseler et al., Current Biology, 2000, vol. 10, p1092-1097) et (Ségalat, Neuromuscular Disorders, 2002, Suppl: S105-9). Cette souche est utilisée comme modèle de myopathie dégénérative. Dans cette souche, jusqu'à 30% des cellules musculaires servant à la locomotion (muscles longitudinaux) dégénèrent à l'état adulte (7 jours à 15°C), ce qui se traduit par une paralysie progressive des animaux.
Les composés sont administrés par mélange avec la gélose sur laquelle sont cultivés les animaux. Ils pénètrent par diffusion à travers la cuticule des animaux.
L'effet des composés sur la dégénérescence musculaire est évalué par 1) l'observation du phénotype des animaux (paralysie), et 2) par l'examen cytologique de la. dégénérescence musculaire au moyen de marqueurs musculaires : rodamine-phalloidine et anticorps anti-myosine. Cet examen permet de compter le nombre de cellules musculaires en dégénérescence ou mortes (Gieseler et al. , 2000, supra).

[2] = system: souris mdx (génotype C57/BL6 mdx5cv); assay: mdx mouse, histological tests (fibre size dispersion, diaphragm degeneration/necrosis, centronucleated fibres); format: in vivo
Source text: (§1) Les tests effectués chez la souris sont de plusieurs types : histologiques, fonctionnels sur l'animal entier, et fonctionnels sur muscles disséqués. Les tests sont effectués sur la souris mdx (génotype C57/BL6 mdx5cv), modèle murin de myopathie dégénérative. Ces tests sont notamment détaillés dans les publications suivantes auxquelles on pourra se référer : • De Luca A, et al. Am. J. Pathol. 2005; 166(2), 477-89. • Divet A, etal. Pflugers Arch. 2002 Aug; 444(5), 634-43. Epub 2002 Jul 10. • Rafael JA, et al. Mamm Genome. 2000 Sep; 11(9), 725-8.
(§2) Les composés sont administrés oralement aux souris dans leur nourriture. Les souris sont traitées de l'âge de 2 semaines à 6 semaines. Elles sont testées à 6 semaines.

[3] = system: protéolyse du muscle de C. elegans; assay: C. elegans muscle proteolysis model representative of cachexia (protocol of Zdinak et al.); format: in vivo; settings: remaining proteolysis relative to control; strongly reduced
[4] = system: souris mdx (génotype C57/BL6 mdx5cv); settings: treated from 2 to 6 weeks of age
Source text: as §1, §2

[5] = concentration efficace 0,1 mg/ml in culture agar
[6] = 0,1 mg/ml in culture agar (0,2-0,3 mM), after 7 days of culture at 15°C

## CC(CN(C)C)CN1c2ccccc2Sc2ccccc21 (stereo not shown) [Trimeprazine, triméprazine]
[1]; [5]
  Diminution de la dégénérescence en %: 65%

## CC(CN(C)C)CN1c2ccccc2CCc2ccccc21 (stereo not shown) [Trimipramine maleate, trimipramine]
[2]; 15 mg/kg/jour, test of Raymackers et al., p<5%
  nécrose du diaphragme: réduit la nécrose du diaphragme
[2]; 15 mg/kg/jour, test of Shavlakadze et al., p<0,1%
  nombre de fibres centronucléées: réduit

## CN(C)CCCN1c2ccccc2CCc2ccccc21 [Imipramine chlorhydrate, imipramine]
[1]; [6]
  Diminution de la dégénérescence en %: 37%
  Pourcentage d'animaux paralysés à J7: 65%
[3]
  protéolyse: 20 % de la protéolyse du témoin
[4]; 40mg/jour/kg oral in food
  Augmentation de la tension développée par le muscle EDL sur animaux vivants: 20%
  Augmentation du score avec le test d'agrippement: 48%
[4]; 40mg/jour/kg oral in food, triton-skinned fibre protocol
  Augmentation de la tension maximale développée par le muscle isolé: 50%

## CNCCCN1c2ccccc2CCc2ccccc21 [Desipramine chlorhydrate, désipramine]
[1]; [6]
  Diminution de la dégénérescence en %: 58%
  Pourcentage d'animaux paralysés à J7: 58%

## NCCc1c[nH]c2ccc(O)cc12 [sérotonine]
[1]; result in words, concentration not given
  dégénérescence musculaire: diminue également la dégénérescence musculaire

## CN(C)CCC=C1c2ccccc2C=Cc2ccccc21 [Cyclobenzaprine, cyclobenzaprine]
[1]; concentration efficace 0,05 mg/ml in culture agar
  Diminution de la dégénérescence en %: 63%
[2]; 3mg/jour/kg oral in food, treated from 2 to 6 weeks of age
  Réduction de l'indice de dégénérescence du diaphragme (fibres nécrotiques et fibres centronucléées): 21%
[2]; 3mg/jour/kg oral in food, treated from 2 to 6 weeks of age, versus untreated animals
  Réduction de la dispersion de taille des fibres (marqueur de dégénérescence): 52%
[4]; 3mg/jour/kg oral in food
  Augmentation de la force exercée dans test d'agrippement: 24%
  Augmentation du score le test d'agrippement: 40%

## CN(C)CC/C=C1/c2ccccc2Sc2ccc(Cl)cc21 [Chloroprothixene, chlorprothixene]
[1]; concentration efficace 0,02 mg/ml in culture agar
  Diminution de la dégénérescence en %: 58%

## COc1ccc2c(c1)N(C[C@H](C)CN(C)C)c1ccccc1S2 [Methotrimeprazine, méthotriméprazine]
[1]; [5]
  Diminution de la dégénérescence en %: 70%
